What was measured:
PPARα = biological target: T1, PPARα (Homo sapiens, UniProt Q07869); assay: PPARα activation in-vitro, mammalian-one-hybrid (M1H) luciferase reporter assay, concentration response; format: cell-based; conditions: GAL4-DBD-PPARα-LBD, transiently transfected HEK293 cells; for PPARα Efficacy: positive control GW7647
T1 construct: expressed in transfected cells; host or cells: HEK293 cells, transiently transfected
T1 sequence (Q07869 239-466 limits assumed): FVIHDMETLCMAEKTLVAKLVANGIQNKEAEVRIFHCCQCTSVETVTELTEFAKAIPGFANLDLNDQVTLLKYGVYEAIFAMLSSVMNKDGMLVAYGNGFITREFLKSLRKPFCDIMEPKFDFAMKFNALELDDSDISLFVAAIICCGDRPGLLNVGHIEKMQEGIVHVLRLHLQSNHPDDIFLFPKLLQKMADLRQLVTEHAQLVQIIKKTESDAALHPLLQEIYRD
Experimental: The assay was carried out in-vitro using mammalian-one-hybrid assays (M1H) comprising GAL4-DNA binding domain-PPARα-LBD fusion constructs in conjunction with 5×GAL4-sites driven Photinus pyralis luciferase reporter construct in transiently transfected HEK293 cells.

Wistar rat = Wistar rat model; Willumsen et al 1997; cited from earlier work

## CC/C=C\C/C=C\C/C=C\C/C=C\C/C=C\CCCCSC(CC)(CC)C(=O)O [Compound (12), 2-ethyl-2-((5Z,8Z,11Z,14Z,17Z)-icosa-5,8,11,14,17-pentaenylthio)butanoic acid]
PPARα
  EC50: 286 nM
  PPARα Efficacy: 84%

## CC(C)(Sc1ccc(CCN(CCCCC2CCCCC2)C(=O)NC2CCCCC2)cc1)C(=O)O [GW7647]
PPARα
  PPARα Efficacy: 100%

## CC/C=C\C/C=C\C/C=C\C/C=C\CCSCC(=O)OC [Methyl (all-Z)-3-thia-6,9,12,15-octadecatetraenoate]
Wistar rat
  plasma triglycerides: lowered plasma triglycerides to a similar extent

Source: US8759558B2, “Sulphur containing lipids for use as food supplement or as medicament” (Pronova Biopharma Norge AS, priority 2008, dated 2014)
